{"source": "patent US7772267B2", "about": "“Bicyclic modulators of androgen receptor function” (Bristol-Myers Squibb Company, priority 2002, dated 2010)", "key": {"[1]": {"system": "endogenous glucocorticoid receptor (A549 cells)", "experiment": "In vitro assay to measure GR-induced AP-1 transrepression (luciferase reporter in A549 cells)", "assay_type": "cell-based", "conditions": "at a concentration of ≦10 µM; typical value for the positive control", "experimental": "The AP-1 assay is a cell-based luciferase reporter assay. A549 cells, which contain endogenous glucocorticoid receptor, were stably transfected with an AP-1 DNA binding site attached to the luciferase gene. Cells are then grown in RPMI+10% fetal calf serum (charcoal-treated)+Penicillin/Streptomycin with 0.5 mg/mL geneticin. Cells are plated the day before the assay at approximately 40000 cells/well. On assay day, the media is removed by aspiration and 20 μL assay buffer (RPMI without phenol red+10% FCS (charcoal-treated)+Pen/Strep) is added to each well. At this point either 20 μL assay buffer (control experiments), the compounds of the present invention (“test compounds”) (dissolved in DMSO and added at varying concentrations) or dexamethasome (100 nM in DMSO, positive control) are added to each well. The plates are then pre-incubated for 15 min at 37° C., followed by stimulation of the cells with 10 ng/mL PMA. The plates are then incubated for 7 h at 37° C. after which 40 μL luciferase substrate reagent is added to each well. Activity is measured by analysis in a luminometer as compared to control experiments treated with buffer or dexamethasome. […] The control, dexamethasone, at a concentration of ≦10 µM typically suppresses activity by 65%."}, "[2]": {"target": "T1, AR (Rattus norvegicus, UniProt P15207)", "T1 sequence (P15207 1-902)": "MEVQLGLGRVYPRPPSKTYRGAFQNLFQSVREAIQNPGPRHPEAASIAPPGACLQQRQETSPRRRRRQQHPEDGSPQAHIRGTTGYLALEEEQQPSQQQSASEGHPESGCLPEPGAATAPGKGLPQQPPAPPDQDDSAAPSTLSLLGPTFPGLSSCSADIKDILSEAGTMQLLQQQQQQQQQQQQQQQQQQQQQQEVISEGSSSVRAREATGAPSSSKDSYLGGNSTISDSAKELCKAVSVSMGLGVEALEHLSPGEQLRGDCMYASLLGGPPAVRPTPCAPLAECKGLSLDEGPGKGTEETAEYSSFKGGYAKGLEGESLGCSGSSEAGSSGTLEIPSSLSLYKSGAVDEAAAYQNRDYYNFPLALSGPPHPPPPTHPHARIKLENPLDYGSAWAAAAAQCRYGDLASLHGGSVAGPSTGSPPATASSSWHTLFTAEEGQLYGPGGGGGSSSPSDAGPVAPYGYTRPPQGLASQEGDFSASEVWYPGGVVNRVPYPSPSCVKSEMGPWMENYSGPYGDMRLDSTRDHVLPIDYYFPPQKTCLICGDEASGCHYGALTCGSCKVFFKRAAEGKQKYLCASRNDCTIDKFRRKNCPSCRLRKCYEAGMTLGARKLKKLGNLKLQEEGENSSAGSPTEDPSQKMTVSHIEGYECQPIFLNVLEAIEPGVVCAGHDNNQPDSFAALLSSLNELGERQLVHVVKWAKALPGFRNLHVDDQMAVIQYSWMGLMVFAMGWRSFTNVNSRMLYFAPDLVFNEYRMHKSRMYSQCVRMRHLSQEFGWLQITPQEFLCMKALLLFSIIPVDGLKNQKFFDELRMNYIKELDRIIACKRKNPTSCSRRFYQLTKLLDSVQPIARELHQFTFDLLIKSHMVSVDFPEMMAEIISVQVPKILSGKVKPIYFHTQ", "description": "The activity of compounds of the present invention as AR agonists was investigated in an immature male rat model, a recognized test of anabolic effects in muscle and sustaining effects in sex organs for a given compound, as described in L. G. Hershberger et al., Proc. Soc. […] Biol. Med., 83, 175 (1953); B. L. Beyler et al, “Methods for evaluating anabolic and catabolic agents in laboratory animals”, J. Amer. Med. Women's Ass., 23, 708 (1968); H. Fukuda et al., “Investigations of the levator ani muscle as an anabolic steroid assay”, Nago Dai. Yak. Ken. Nem. 14, 84 (1966) the disclosures of which are herein incorporated by reference.\nThe basis of this assay lies in the well-defined action of androgenic agents on the maintenance and growth of muscle tissues and sexual accessory organs in animals and man. […] J. Anat. […] I. Quantitative data” Boll.-Soc. Ital. Biol. Sper. […] II. Electron-microscopic observations” Boll.-Soc. Ital. Biol. Sper. 42, 1600 (1966); A. Boris et al., Steroids 15, 61 (1970). As described above, the effects of androgens on maintenance of male sexual accessory organs, such as the prostate and seminal vesicles, is well described. Castration results in rapid involution and atrophy of the prostate and seminal vesicles. This effect can be reversed by exogenous addition of androgens. […]"}}}
{"smiles": "Cc1c(N2C[C@@H]3[C@@H](O)CCN3C2=O)ccc(C#N)c1Cl", "values": [{"measurement": "melting point", "result": "148 to 149", "unit": "°C"}]}
{"smiles": "C[C@@H]1C[C@H]2[C@@H]3CCC4=CC(=O)C=C[C@]4(C)[C@@]3(F)[C@@H](O)C[C@]2(C)[C@@]1(O)C(=O)CO", "note": "[dexamethasone]", "values": [{"measurement": "suppression of activity (% inhibition of the reporter system vs buffer control with 10 ng/mL PMA alone)", "setting": "[1]", "result": 65, "unit": "%"}]}
{"smiles": "CCC(=O)O[C@H]1CC[C@H]2[C@@H]3CCC4=CC(=O)CC[C@]4(C)[C@H]3CC[C@]12C", "note": "[TP, Testosterone Propionate]", "values": [{"measurement": "EC50 (increase in organ weight)", "setting": "[2]; castrated rats, organ weight increase", "result": "~0.03", "unit": "mg"}, {"measurement": "potency relative to free T", "setting": "[2]; higher potency than free T", "result": "10-30 fold"}]}
